Ki data for seven molecules are collected here from ChEMBL document CHEMBL1126029, “Definition and display of steric, hydrophobic, and hydrogen-bonding properties of ligand binding sites in proteins using Lee and Richards accessible surface: validation of a high-resolution graphical tool for drug design” (J Med Chem, 1992).

The test deals with T1, Thermolysin (Bacillus thermoproteolyticus, UniProt P00800).
T1 sequence (P00800 whole entry): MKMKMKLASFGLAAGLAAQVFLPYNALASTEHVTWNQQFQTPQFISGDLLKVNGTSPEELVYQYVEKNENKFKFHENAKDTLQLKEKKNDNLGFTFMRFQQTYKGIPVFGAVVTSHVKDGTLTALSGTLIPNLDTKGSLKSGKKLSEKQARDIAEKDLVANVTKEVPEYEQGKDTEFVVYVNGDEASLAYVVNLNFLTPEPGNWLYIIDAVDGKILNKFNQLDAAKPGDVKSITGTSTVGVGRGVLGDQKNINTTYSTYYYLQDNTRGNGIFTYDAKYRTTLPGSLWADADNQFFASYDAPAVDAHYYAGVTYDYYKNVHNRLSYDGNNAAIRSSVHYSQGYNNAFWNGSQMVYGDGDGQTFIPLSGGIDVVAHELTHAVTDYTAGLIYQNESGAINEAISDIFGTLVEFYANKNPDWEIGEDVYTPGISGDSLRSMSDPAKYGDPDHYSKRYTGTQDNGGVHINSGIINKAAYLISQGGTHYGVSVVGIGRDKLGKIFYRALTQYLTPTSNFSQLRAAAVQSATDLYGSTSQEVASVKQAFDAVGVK
As to the kind of experiment: Inhibitory constant against thermolysin.

The term Ki denotes a dissociation constant, usually derived from enzyme kinetics or from competition with a known ligand. Take `CC(C)C[C@H](NC(=O)[C@H](CC(C)C)NC(=O)CN(C(=O)OCc1ccccc1)P(=O)(O)O)C(=O)O`: the Ki is 0.0091 µM.

The molecule `CC(C)C[C@H](NC(CCCc1ccccc1)C(=O)O)C(=O)N[C@@H](Cc1c[nH]c2ccccc12)C(=O)O` (some centres not stated) showed a Ki of 0.05 µM.

`O=C(O)CC(=O)N[C@@H](CS)Cc1ccccc1`: the Ki turned out to be 2.3 µM.

For `C[C@H](NC(=O)C(CS)Cc1ccccc1)C(=O)NCC(N)=O` (some centres not stated), the affinity corresponds to a Ki of 0.75 µM.

With `CC(C)C[C@H](NP(=O)(O)O)C(N)=O`, the Ki was 21.3 µM.

For `CC(C)C[C@H](NP(=O)(O)O[C@@H]1O[C@@H](C)[C@H](O)[C@@H](O)[C@H]1O)C(=O)N[C@@H](Cc1c[nH]c2ccccc12)C(=O)O` [PHOSPHORAMIDON], the Ki was 0.028 µM.

For `O=C(O)CNC(=O)C(CS)Cc1ccccc1` (configuration not stated) [THIORPHAN], the Ki was found to be 1.8 µM.
